Experimental data published in US20240418701A1, “SINGLE MOLECULE IDEN[…] A REACTIVE HETERO-NANOPORE” (priority 2021, published 2024).
Where “and” joins values, the source holds several entries; their conditions need not be identical. Equal values may be shown once.

Legend:
[1] = biological target: T1, MspA-PBA (phenylboronic acid modified hetero-octameric (N90C)1(M2)7 MspA) (Mycolicibacterium smegmatis, UniProt A0QR29, D117C/D118N/D120N/D145R/D161R/E166K); test: Single channel recording of L-Sorbose binding to MspA-PBA nanopore; parameters: species or system Mycobacterium smegmatis; settings: for 1/τoff Mean / 1/τon Mean / Amplitude of L-Sorbose events, Current, Mean: N=3
T1 construct: H6 (hexa-histidine) (C); 3-(maleimide) phenylboronic acid (MPBA) adduct on the thiol of Cys90; made in house; host or cells: E. coli BL21 (DE3) pLysS, co-expression from pETDuet-1

octameric M2 MspA-D16H6 = biological target: T2, octameric M2 MspA-D16H6 (Mycolicibacterium smegmatis, UniProt A0QR29, D117N/D118N/D120N/D145R/D161R/E166K); test: L-Sorbose sensing by octameric M2 MspA-D16H6 (control without PBA); assay type: binding, Mycobacterium smegmatis; settings: L-Sorbose 50 mM in cis, +160 mV
T2 construct: D16 (16 consecutive aspartic acids) (C); H6 (hexa-histidine) (C); made in house; host or cells: E. coli BL21 (DE3) pLysS, pET-30a(+)
T2 sequence (A0QR29 other isoform, or with tags, fused parts or gaps D117N/D118N/D120N/D145R/D161R/E166K): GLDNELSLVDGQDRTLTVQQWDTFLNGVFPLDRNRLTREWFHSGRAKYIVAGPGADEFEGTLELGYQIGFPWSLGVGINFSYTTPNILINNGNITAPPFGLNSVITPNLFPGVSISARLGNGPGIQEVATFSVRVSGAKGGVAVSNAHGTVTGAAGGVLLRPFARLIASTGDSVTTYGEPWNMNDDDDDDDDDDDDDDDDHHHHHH
Description: FIG. 11: L-Sorbose sensing by an octameric M2 MspA-D16H6. L-Sorbose sensing was performed with an octameric M2 MspA-D16H6 in a 1.5 M KCl, 10 mM MOPS, pH7.0 buffer. A +160 mV bias was continually applied.
L-Sorbose is a monosaccharide ketose. It exists in all living species, ranging from bacteria to human^50. The commercial production of vitamin C (ascorbic acid) often begins with L-Sorbose^51. To further verify the existence of a PBA in the lumen of the pore, MspA-PBA was used to sense L-Sorbose. The measurement was performed with a single MspA-PBA and a 1.5 M KCl, 10 mM MOPS, pH 7.0 buffer with the continuous application of a +160 m V bias. The addition of L-Sorbose to cis to a 10 mM final concentration resulted immediately in the consecutive appearance of long residing resistive pulse events (FIGS. 1d-1f, Supplementary Video 1). […] In this way, it was confirmed that the introduction of a PBA to the pore lumen is critical for the generation of saccharide sensing events.
The measurement device is composed of two custom-made polyformaldehyde chambers separated by a ˜20 μm-thick Teflon film with a drilled aperture (˜100 μm in diameter). Before the measurement, the aperture was first treated with 0.5% (v/v) hexadecane in pentane and set for evaporation of the pentane. […] All events were detected by the “single channel research” function in Clampfit 10.7. […]

[2] = L-Sorbose 400 μM in cis, +160 mV
[3] = L-Sorbose 800 μM in cis, +160 mV
[4] = L-Sorbose 1200 μM in cis, +160 mV
[5] = L-Sorbose 1600 μM in cis, +160 mV
[6] = L-Sorbose 2000 μM in cis, +160 mV

O=C(CO)[C@@H](O)[C@H](O)[C@@H](O)CO [L-Sorbose, L-(−)-Sorbose]
Amplitude of L-Sorbose events, Current, Pore1 ([1]; 40 mV, L-Sorbose 5 mM in cis): 29.3 ± 0.0005 pA | Amplitude of L-Sorbose events, Current, Pore2 ([1]; 40 mV, L-Sorbose 5 mM in cis): 29.05 ± 0.0005 pA | Amplitude of L-Sorbose events, Current, Pore3 ([1]; 40 mV, L-Sorbose 5 mM in cis): 29.2 ± 0.002 pA | 1/τoff Mean ([1]; 40 mV, L-Sorbose 5 mM in cis): 5.06E−04 ms^−1 | 1/τon Mean ([1]; 40 mV, L-Sorbose 5 mM in cis): 7.9E−04 ms^−1 | Amplitude of L-Sorbose events, Current, Mean ([1]; 40 mV, L-Sorbose 5 mM in cis): 29.2 pA | Amplitude of L-Sorbose events, Current, Pore1 ([1]; 70 mV, L-Sorbose 5 mM in cis): 54.5 ± 0.010 pA | Amplitude of L-Sorbose events, Current, Pore2 ([1]; 70 mV, L-Sorbose 5 mM in cis): 52.7 ± 0.0008 pA | Amplitude of L-Sorbose events, Current, Pore3 ([1]; 70 mV, L-Sorbose 5 mM in cis): 52.5 ± 0.0008 pA | 1/τoff Mean ([1]; 70 mV, L-Sorbose 5 mM in cis): 4.3E−04 ms^−1 | 1/τon Mean ([1]; 70 mV, L-Sorbose 5 mM in cis): 7.4E−04 ms^−1 | Amplitude of L-Sorbose events, Current, Mean ([1]; 70 mV, L-Sorbose 5 mM in cis): 53.08 pA | Amplitude of L-Sorbose events, Current, Pore1 ([1]; 100 mV, L-Sorbose 5 mM in cis): 74.6 ± 0.002 pA | Amplitude of L-Sorbose events, Current, Pore2 ([1]; 100 mV, L-Sorbose 5 mM in cis): 73.2 ± 0.009 pA | Amplitude of L-Sorbose events, Current, Pore3 ([1]; 100 mV, L-Sorbose 5 mM in cis): 73.3 ± 0.002 pA | 1/τoff Mean ([1]; 100 mV, L-Sorbose 5 mM in cis): 4.04E−04 ms^−1 | 1/τon Mean ([1]; 100 mV, L-Sorbose 5 mM in cis): 8.7E−04 ms^−1 | Amplitude of L-Sorbose events, Current, Mean ([1]; 100 mV, L-Sorbose 5 mM in cis): 73.7 pA | Amplitude of L-Sorbose events, Current, Pore1 ([1]; 130 mV, L-Sorbose 5 mM in cis): 91.6 ± 0.003 pA | Amplitude of L-Sorbose events, Current, Pore2 ([1]; 130 mV, L-Sorbose 5 mM in cis): 90.3 ± 0.004 pA | Amplitude of L-Sorbose events, Current, Pore3 ([1]; 130 mV, L-Sorbose 5 mM in cis): 90.3 ± 0.004 pA | 1/τoff Mean ([1]; 130 mV, L-Sorbose 5 mM in cis): 3.8E−04 ms^−1 | 1/τon Mean ([1]; 130 mV, L-Sorbose 5 mM in cis): 8.4E−04 ms^−1 | Amplitude of L-Sorbose events, Current, Mean ([1]; 130 mV, L-Sorbose 5 mM in cis): 90.8 pA | Amplitude of L-Sorbose events, Current, Pore1 ([1]; 160 mV, L-Sorbose 5 mM in cis): 107.7 ± 0.005 pA | Amplitude of L-Sorbose events, Current, Pore2 ([1]; 160 mV, L-Sorbose 5 mM in cis): 104.9 ± 0.006 pA | Amplitude of L-Sorbose events, Current, Pore3 ([1]; 160 mV, L-Sorbose 5 mM in cis): 105.3 ± 0.006 pA | 1/τoff Mean ([1]; 160 mV, L-Sorbose 5 mM in cis): 2.9E−04 ms^−1 | 1/τon Mean ([1]; 160 mV, L-Sorbose 5 mM in cis): 8.5E−04 ms^−1 | Amplitude of L-Sorbose events, Current, Mean ([1]; 160 mV, L-Sorbose 5 mM in cis): 105.9 pA | Amplitude of L-Sorbose events, Current, Pore1 ([1]; 190 mV, L-Sorbose 5 mM in cis): 122.9 ± 0.007 pA | Amplitude of L-Sorbose events, Current, Pore2 ([1]; 190 mV, L-Sorbose 5 mM in cis): 116.7 ± 0.008 pA | Amplitude of L-Sorbose events, Current, Pore3 ([1]; 190 mV, L-Sorbose 5 mM in cis): 120.7 ± 0.010 pA | 1/τoff Mean ([1]; 190 mV, L-Sorbose 5 mM in cis): 2.9E−04 ms^−1 | 1/τon Mean ([1]; 190 mV, L-Sorbose 5 mM in cis): 8.3E−04 ms^−1 | Amplitude of L-Sorbose events, Current, Mean ([1]; 190 mV, L-Sorbose 5 mM in cis): 120.13 pA | Amplitude of L-Sorbose events, Current, Pore1 ([1]; 220 mV, L-Sorbose 5 mM in cis): 143.6 ± 0.02 pA | Amplitude of L-Sorbose events, Current, Pore2 ([1]; 220 mV, L-Sorbose 5 mM in cis): 132.9 ± 0.02 pA | Amplitude of L-Sorbose events, Current, Pore3 ([1]; 220 mV, L-Sorbose 5 mM in cis): 137.2 ± 0.013 pA | 1/τoff Mean ([1]; 220 mV, L-Sorbose 5 mM in cis): 3.4E−04 ms^−1 | 1/τon Mean ([1]; 220 mV, L-Sorbose 5 mM in cis): 8.07E−04 ms^−1 | Amplitude of L-Sorbose events, Current, Mean ([1]; 220 mV, L-Sorbose 5 mM in cis): 137.9 pA | blockage amplitude (ΔI) / current drop of L-Sorbose sensing events ([1]; +160 mV, L-Sorbose 10 mM in cis): ~100 pA and ~102 pA | 1/τoff Mean [1, 2]: 2.9E−04 ms^−1 | 1/τon Mean [1, 2]: 5.10E−05 ms^−1 | 1/τoff Mean [1, 3]: 2.9E−04 ms^−1 | 1/τon Mean [1, 3]: 1.03E−04 ms^−1 | 1/τoff Mean [1, 4]: 3.08E−04 ms^−1 | 1/τon Mean [1, 4]: 1.7E−04 ms^−1 | 1/τoff Mean [1, 5]: 3.11E−04 ms^−1 | 1/τon Mean [1, 5]: 2.2E−04 ms^−1 | 1/τoff Mean [1, 6]: 2.9E−04 ms^−1 | 1/τon Mean [1, 6]: 3.07E−04 ms^−1 | 1/τoff Mean ([1]; −40 mV, L-Sorbose 5 mM in cis): 5.01E−04 ms^−1 | 1/τon Mean ([1]; −40 mV, L-Sorbose 5 mM in cis): 7.6E−04 ms^−1 | resistive pulse events with M2 MspA (octameric M2 MspA-D16H6): failed to cause any resistive pulse events
